Experimental data taken from patent US20240150839A1, “METHODS FOR PREDICTING RESPONSIVENESS OF PROSTATE CANCER PATIENTS TO PARP INHIBITORS” (Memorial Sloan Kettering Cancer Center, priority 2019, published 2024).

Assays:
Assay type in all cases: cell-based, human
[1] = system: LNCaP-BRCA2-RB1 cells; test: qPCR of EMT transcription factors after androgen (R1881) treatment; settings: 1 nM R1881, 48 hours in CSS (FIG. 3I)
Protocol: Scr-CRISPR and BRCA2-CRISPR2 cells were also transfected with non-targeting shRNA (scr-Sh) for control of shRNA. GAPDH served as the loading control. […] Nuclei were stained with DAPI (blue). […] Control cells were transfected with empty vector. […] GAPDH served as the loading control. […] LNCaP cells were used as control. GAPDH served as the loading control. […] Nuclei were stained with DAPI (blue). […] Equivalent volume of DMSO was used as placebo treatment. Cell growth was measured by MTT assay; SD, P-values determined by Student's t-test. […] LNCaP-BRCA2-RB1 or control cells were incubated in charcoal-stripped medium (CSS) for 24 hours followed by treatment with 1 nM R1881 for another 48 hours (in CSS). […] Expression of the indicated genes normalized with untreated control and GAPDH. […] Scrambled-SMARTpool siRNA transfected LNCaP cells were used as control. 2.5×10^3 indicated cells (72 hours after indicated siRNA transfection) were plated on the top of Boyden chamber in serum-free media; 10% serum in the bottom chamber was used as chemo-attractant. After 24 hours, cells in the lower side of the chamber were fixed, stained, photographed in 100× magnification (top panel), and counted and represented in the form of the bar graph (bottom panel). P-values were determined by Student's t-test.
RNA Extraction and qPCR. […] All quantifications were normalized to endogenous GAPDH.

[2] = system: 22RV1 cells; test: MTT cell growth with PARPi or cisplatin; settings: 22RV1, BRCA2 T3033Nfs*11, RB1-wt; cisplatin 500 nM, talazoparib 5 nM, 6 days (FIG. 11D)
Protocol: The ploidy of each cell line is indicated. […] Equivalent volume of DMSO was used as placebo treatment. Cell growth was measured by MTT assay (see Example 1); SD, each point indicates the MTT count of each well of 96-well plate, P-values determined by Student's t-test. **P<0.01, ****P<0.0001. […] Cell Proliferation Assay by MTT, BrdU and Crystal Violet. For MTT assay, cells were plated at 2.5×10^3 per well in 96-well plates in complete media (10% FBS) or media supplemented with 10% charcoal-stripped serum. Cells were either treated with DMSO or with indicated inhibitors. After indicated times, cells were incubated in 0.5 mg/mL MTT (Invitrogen) for 1 hour at 37° C. MTT crystals were dissolved in isopropanol and absorbance was measured in a BioTek plate reader at […] and represented graphically.

[3] = system: BRCA2-null LNCaP cells; test: MTT cell growth of BRCA2 CRISPR-edited LNCaP cells with PARP inhibitors or cisplatin; settings: BRCA2 knockout LNCaP vs control gRNA (scr) cells; complete medium, 6 days (FIG. 7C)
Protocol: Cells infected with scrambled (scr) gRNA were used as control. Equal amount of proteins was loaded in WedgeWell 6% gel and western blot was performed. ˜400 kDa BRCA2 band is indicated by arrow. GAPDH served as loading controls for western blot and qPCR. […] Genotypes are detected by PCR amplification followed by being treated with T7 endonuclease. Wt and mutant BRCA2 are indicated by red and green arrows, respectively. […] Equivalent volume of DMSO was used as placebo treatment. Cell growth was measured by MTT assay (see Example 1); SD, P-values determined by Student's t-test. *P<0.05, **P<0.01, ***P<0.001. FIGS. 7D-7E show the growth curve (FIG. 7D) and a bar graph (FIG. 7E) representing the cell growth of LNCaP BRCA2 CRISPR-edited and non-targeting control gRNA (scr) infected cells in complete medium supplemented with enzalutamide (ENZ; indicated concentration) for 7 days or charcoal-stripped medium (CSS) for 5 days, respectively. Equivalent volume of DMSO was used as placebo treatment. Cell growth was measured by crystal violet staining assay (see Example 1) (±SD); P-values determined by Student's t-test. […] Equivalent volume of DMSO was used as placebo treatment. Cell growth was measured by MTT assay (see Example 1) (±SD); P-values determined by Student's t-test. […] Total RNA was isolated, and BRCA2 mRNA was analyzed by qPCR. […] Cell growth was measured by MTT assay; SD, P-values determined by Student's t-test.
To generate BRCA2 knockout RWPE1 cells, BRCA2 gRNA2 was cloned into LentiCRISPRv2-GFP backbone which constitutively expresses Cas9 and GFP. Lentiviral infected cells were selected by FACS sorting for GFP positive cells (twice) and analyzed by western blot. […] Loss of BRCA2 in the pooled populations of LNCaP cells was analyzed by western blot using BRCA2-specific antibodies and this pooled population of cells was used for the following experiments. […]
Cell Proliferation Assay by MTT, BrdU and Crystal Violet. […] MTT crystals were dissolved in isopropanol and absorbance was measured in a BioTek plate reader at […] and represented graphically.

SMILES | SLUG mRNA (qPCR) [1] | sensitivity (cell growth, MTT) [2] | sensitivity (cell growth, MTT) [3]
C[C@]1(O)CC[C@H]2[C@@H]3CCC4=CC(=O)CCC4=C3C=C[C@@]21C [R1881] | significantly increased | – | –
N.N.[Cl][Pt][Cl] [cisplatin] | – | sensitivity | enhanced sensitivity
